# From patent publication US10172957B2, “Acid-labile lipophilic prodrugs of cancer chemotherapeutic agents” (priority 2011, dated 2019)
# Experiments:
# Assay type in all cases: in vitro ADME
# [1] = Stability in human plasma at 37° C.
# Protocol: The stability of the acid labile, lipophilic molecular conjugates to hydrolysis in plasma was evaluated to determine their potential to release the active cancer chemotherapeutic agents into systemic circulation and thereby cause general off target toxicity (“side effects”). The conjugates were incubated with plasma of mouse, rat and human origin.
# (§1) HPLC grade Methanol from Fisher (Fair lawn, NJ, USA). Part No: A452-4 (074833). HPLC grade Water from Fisher (Fair lawn, NJ, USA). Part No: W5-4 (073352). Drug-free mouse, rat and human plasmas were purchased from Innovative Research Inc. (Southfield, Mich., USA). LIPOSYN® I.V. (30% soybean oil and egg yolk phospholipids, Abbott Laboratories) Fat Emulsion from Hospira, Inc. (Lake Forest, Ill.).
# Each drug (ART 198, ART 273, ART 488 and ART 489) was prepared in triplicate in mouse, rat and human plasma individually at […] concentration and vortexed for 1 minute and placed in a water bath at 37° C. at a shake rate of 75 per minute. Samples were drawn at time points of 0, 15, 30, 45, 60, 75, 90, 105, 120, 135, 150, 165, 180, 210, 240, 300, 360 and 480 minutes.
# (§2) Chromatographic separation of the compounds was performed on a Waters Acquity UPLC™ using a BEH C18 column (1.7 μm, 2.1×50 mm). The mobile phase consisted of Methanol: 0.1% Formic acid (80:20). The flow rate was 0.3 ml/min; the sample injection volume was 5 μL, resulting in a 3 minute run time.
# (§3) The MS instrumentation consisted of a Waters Micromass Quattro Micro™ triple-quadrupole system (Manchester, UK). The MS system was controlled by a 4.0 version of MassLynx software. Ionization was performed in the positive electrospray ionization mode. MS/MS conditions were the following: capillary voltage 3.02 kV; cone voltage 50 v; extractor voltage 5 v; and RF lens voltage 0.5 v. The source and desolvation temperatures were 100° C. and 400° C. respectively, and the desolvation and cone gas flow were 400 and 30 L/hr, respectively.
# (§4) The selected mass-to-charge (m/z) ratio transitions of the ART 198 used in the selected ion monitoring (SIM) were: for ART 198, 617 (M+K)^+, for ART 273, 589 (M+K)^+, for ART 488, 913 (M+Na)^+, and for ART 489, 957 (M+Na)^+. The dwell time was set at 200 msec. MS conditions were optimized using direct infusion of standard solutions prepared in methanol and delivered by a syringe pump at a flow rate of 20 μL/min.
# (§5) Samples of 100 μL were collected at time points of 0, 15, 30, 45, 60, 75, 90, 105, 120, 135, 150, 165, 180, 210, 240, 300, 360 and 480 minutes respectively and the reaction was terminated with methanol. In a separate set of experiments the acid labile, lipophilic molecular conjugates were dissolved in a small amount of ethanol and diluted into a lipid emulsion (Liposyn®) and added to mouse and human plasma before incubation and the hydrolysis of the conjugates was similarly measured. Collected plasma samples of 100 μL containing drug were placed in separate Eppendorf micro centrifuge tubes for processing. Methanol (200 μL) was added to extract the drug using the protein precipitation technique. The micro tubes were then vortex mixed for 10 minutes and centrifuged for 15 minutes at a speed of 10,000 rpm (Eppendorf 5415C centrifuge). The supernatant was collected and filtered using a 0.45 μm filter (Waters 13 mm GHP 0.45 μm) before analysis.
# The weighted linear least-squares (1/x) regression was used as the mathematical model. The coefficient (r) for the compounds ranged from 0.9925 to 0.9999. The calibration range was selected according to the concentrations anticipated in the samples to be determined.
# (§6) Samples were collected at various times and the percent remaining of the acid labile, lipophilic molecular conjugate of the cancer chemotherapeutic agent was determined along with the percent of the chemotherapeutic agent released from the hydrolysis of the conjugate.
# [2] = Stability in human plasma when added in a lipid emulsion (Liposyn); details: 37° C.
# Protocol: as §1, §2, §3, §4, §5, §6
# [3] = Stability in mouse plasma when added in a lipid emulsion (Liposyn); details: 37° C.
# Protocol: as §1, §2, §3, §4, §5, §6
compound,measurement,setting,value
CCCCCCCCCCCCCCCC1OCC(COC(=O)O[C@@H]2C(=O)C=C(C)[C@@H]3C[C@H]4OC(=O)C(OC(=O)CC(O)(C(C)C)C(C)C)C5[C@@H](C)[C@@H](O)[C@@]6(O)OC[C@@]54C6[C@@]23C)O1 (some centres unmarked) [ART 488],percent remaining of initial drug,[1]; 0 min,100%
same,percent remaining of initial drug,[1]; 15 min,90.8%
same,percent remaining of initial drug,[1]; 30 min,89.1%
same,percent remaining of initial drug,[1]; 45 min,87.8%
same,percent remaining of initial drug,[1]; 60 min,87.9%
same,percent remaining of initial drug,[1]; 75 min,87.9%
same,percent remaining of initial drug,[1]; 90 min,87.1%
same,percent remaining of initial drug,[1]; 105 min,86.2%
same,percent remaining of initial drug,[1]; 120 min,85.3%
same,percent remaining of initial drug,[1]; 135 min,84.0%
same,percent remaining of initial drug,[1]; 150 min,82.7%
same,percent remaining of initial drug,[1]; 165 min,81.1%
same,percent remaining of initial drug,[1]; 180 min,78.6%
same,percent remaining of initial drug,[1]; 210 min,78.1%
same,percent remaining of initial drug,[1]; 240 min,76.5%
same,percent remaining of initial drug,[1]; 300 min,59.3%
same,percent remaining of initial drug,[1]; 360 min,59.8%
same,percent remaining of initial drug,[1]; 480 min,43.6%
same,percent remaining of initial drug,[2]; 0 min,100%
same,percent remaining of initial drug,[2]; 15 min,98.3%
same,percent remaining of initial drug,[2]; 30 min,97.3%
same,percent remaining of initial drug,[2]; 45 min,96.1%
same,percent remaining of initial drug,[2]; 60 min,95.8%
same,percent remaining of initial drug,[2]; 75 min,95.3%
same,percent remaining of initial drug,[2]; 90 min,95.6%
same,percent remaining of initial drug,[2]; 105 min,94.6%
same,percent remaining of initial drug,[2]; 120 min,94.5%
same,percent remaining of initial drug,[2]; 135 min,92.5%
same,percent remaining of initial drug,[2]; 150 min,92.2%
same,percent remaining of initial drug,[2]; 165 min,91.9%
same,percent remaining of initial drug,[2]; 180 min,91.0%
same,percent remaining of initial drug,[2]; 210 min,91.0%
same,percent remaining of initial drug,[2]; 240 min,90.7%
same,percent remaining of initial drug,[2]; 300 min,90.7%
same,percent remaining of initial drug,[2]; 360 min,90.2%
same,percent remaining of initial drug,[2]; 480 min,88.1%
same,percent remaining of initial drug,[3]; 0 min,100%
same,percent remaining of initial drug,[3]; 15 min,98.7%
same,percent remaining of initial drug,[3]; 30 min,98.2%
same,percent remaining of initial drug,[3]; 45 min,97.4%
same,percent remaining of initial drug,[3]; 60 min,96.9%
same,percent remaining of initial drug,[3]; 75 min,97.0%
same,percent remaining of initial drug,[3]; 90 min,98.3%
same,percent remaining of initial drug,[3]; 105 min,96.0%
same,percent remaining of initial drug,[3]; 120 min,95.2%
same,percent remaining of initial drug,[3]; 135 min,93.8%
same,percent remaining of initial drug,[3]; 150 min,93.1%
same,percent remaining of initial drug,[3]; 165 min,92.9%
same,percent remaining of initial drug,[3]; 180 min,91.8%
same,percent remaining of initial drug,[3]; 210 min,91.7%
same,percent remaining of initial drug,[3]; 240 min,91.4%
same,percent remaining of initial drug,[3]; 300 min,91.3%
same,percent remaining of initial drug,[3]; 360 min,90.0%
